# Data published in the supplement of paper PMC10627819.
# Columns and labels:
# S. pneumoniae D39V [1] = experiment: fitness (endpoint OD595 vs no drug) (fraction); higher = more growth
# Outline: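 Fitness was measured as bacterial growth in 384-well plates inoculated at OD595 0.01 (30 µl, or 55 µl for S. pneumoniae). Media were TSB, LB Lennox or CY, at 37 °C. OD595 was read every 30 min for 14 h and background-subtracted against the first reading. Fitness is OD595 at the transition into stationary phase divided by the robust mean of no-drug control wells, capped at 1.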
# B. subtilis 168 = experiment: Bliss interaction score (quartile over a dose matrix) (fitness difference); higher = more antagonism (negative = synergy)
# Outline: (§1)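 OD595 was read at entry into stationary phase and expressed relative to the robust mean of the no-drug wells on the same plate, capped at 1. The resulting ratio is the fitness value. The Bliss score, observed fitness minus product-based expected fitness with single-drug fitness inferred from combinations, is summarised by quartiles over technical, biological and donor/recipient replicates.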
# S. aureus DSM 20231 = experiment: as above
# Outline: as §1
# S. aureus Newman = experiment: as above
# Outline: as §1
# S. pneumoniae D39V [2] = experiment: as above
# Outline: as §1
# 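Throughout, for Bliss interaction score (quartile over a dose matrix): first quartile when negative (synergy) and third quartile when positive (antagonism).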
smiles,measurement,setting,value
CC1(C)S[C@@H]2[C@H](NC(=O)[C@H](N)c3ccc(O)cc3)C(=O)N2[C@H]1C(=O)O [Amoxicillin] + C[C@H]1COc2c(N3CCN(C)CC3)c(F)cc3c(=O)c(C(=O)O)cn1c23 [Levofloxacin],fitness,"S. pneumoniae D39V [1]; first compound 0.0008 µg/mL, partner 0.1725 µg/mL",0.955
same,fitness,"S. pneumoniae D39V [1]; first compound 0.0008 µg/mL, partner 0.2 µg/mL, one replicate",0.959
same,fitness,"S. pneumoniae D39V [1]; first compound 0.0008 µg/mL, partner 0.345 µg/mL",0.911
same,fitness,"S. pneumoniae D39V [1]; first compound 0.0008 µg/mL, partner 0.4 µg/mL, one replicate",0.881
same,fitness,"S. pneumoniae D39V [1]; first compound 0.0008 µg/mL, partner 0.69 µg/mL",0.591
same,fitness,"S. pneumoniae D39V [1]; first compound 0.0008 µg/mL, partner 0.8 µg/mL, one replicate",0.718
same,fitness,"S. pneumoniae D39V [1]; first compound 0.0015 µg/mL, partner 0.1725 µg/mL",0.976
same,fitness,"S. pneumoniae D39V [1]; first compound 0.0015 µg/mL, partner 0.2 µg/mL",0.951
same,fitness,"S. pneumoniae D39V [1]; first compound 0.0015 µg/mL, partner 0.345 µg/mL",0.906
same,fitness,"S. pneumoniae D39V [1]; first compound 0.0015 µg/mL, partner 0.4 µg/mL",0.868
same,fitness,"S. pneumoniae D39V [1]; first compound 0.0015 µg/mL, partner 0.69 µg/mL",0.57
same,fitness,"S. pneumoniae D39V [1]; first compound 0.0015 µg/mL, partner 0.8 µg/mL",0.774
same,fitness,"S. pneumoniae D39V [1]; first compound 0.003 µg/mL, partner 0.1725 µg/mL",0.96
same,fitness,"S. pneumoniae D39V [1]; first compound 0.003 µg/mL, partner 0.2 µg/mL",0.866
same,fitness,"S. pneumoniae D39V [1]; first compound 0.003 µg/mL, partner 0.345 µg/mL",0.89
same,fitness,"S. pneumoniae D39V [1]; first compound 0.003 µg/mL, partner 0.4 µg/mL",0.893
same,fitness,"S. pneumoniae D39V [1]; first compound 0.003 µg/mL, partner 0.69 µg/mL",0.561
same,fitness,"S. pneumoniae D39V [1]; first compound 0.003 µg/mL, partner 0.8 µg/mL",0.775
same,fitness,"S. pneumoniae D39V [1]; first compound 0.006 µg/mL, partner 0.2 µg/mL, one replicate",0.5
same,fitness,"S. pneumoniae D39V [1]; first compound 0.006 µg/mL, partner 0.4 µg/mL, one replicate",0.509
same,fitness,"S. pneumoniae D39V [1]; first compound 0.006 µg/mL, partner 0.8 µg/mL, one replicate",0.399
same,Bliss interaction score,B. subtilis 168,0.0559
same,Bliss interaction score,S. aureus DSM 20231,0.0396
same,Bliss interaction score,S. aureus Newman,-0.0695
same,Bliss interaction score,S. pneumoniae D39V [2],0.142
CC1(C)S[C@@H]2[C@H](NC(=O)[C@H](N)c3ccc(O)cc3)C(=O)N2[C@H]1C(=O)O [Amoxicillin] + C[C@H]1c2cccc(O)c2C(=O)C2=C(O)[C@]3(O)C(=O)C(C(N)=O)=C(O)[C@@H](N(C)C)[C@@H]3[C@@H](O)[C@@H]21 [Doxycycline],fitness,"S. pneumoniae D39V [1]; first compound 0.0008 µg/mL, partner 0.003875 µg/mL, one replicate",0.967
same,fitness,"S. pneumoniae D39V [1]; first compound 0.0008 µg/mL, partner 0.00775 µg/mL, one replicate",0.976
same,fitness,"S. pneumoniae D39V [1]; first compound 0.0008 µg/mL, partner 0.0155 µg/mL",0.931
same,fitness,"S. pneumoniae D39V [1]; first compound 0.0008 µg/mL, partner 0.031 µg/mL",0.853
same,fitness,"S. pneumoniae D39V [1]; first compound 0.0008 µg/mL, partner 0.062 µg/mL",0.797
same,fitness,"S. pneumoniae D39V [1]; first compound 0.0015 µg/mL, partner 0.003875 µg/mL, one replicate",0.961
same,fitness,"S. pneumoniae D39V [1]; first compound 0.0015 µg/mL, partner 0.00775 µg/mL, one replicate",0.988
same,fitness,"S. pneumoniae D39V [1]; first compound 0.0015 µg/mL, partner 0.0155 µg/mL",0.899
same,fitness,"S. pneumoniae D39V [1]; first compound 0.0015 µg/mL, partner 0.031 µg/mL",0.86
same,fitness,"S. pneumoniae D39V [1]; first compound 0.0015 µg/mL, partner 0.062 µg/mL",0.767
same,fitness,"S. pneumoniae D39V [1]; first compound 0.003 µg/mL, partner 0.003875 µg/mL, one replicate",0.944
same,fitness,"S. pneumoniae D39V [1]; first compound 0.003 µg/mL, partner 0.00775 µg/mL, one replicate",0.973
same,fitness,"S. pneumoniae D39V [1]; first compound 0.003 µg/mL, partner 0.0155 µg/mL",0.898
same,fitness,"S. pneumoniae D39V [1]; first compound 0.003 µg/mL, partner 0.031 µg/mL",0.903
same,fitness,"S. pneumoniae D39V [1]; first compound 0.003 µg/mL, partner 0.062 µg/mL",0.724
same,fitness,"S. pneumoniae D39V [1]; first compound 0.006 µg/mL, partner 0.0155 µg/mL, one replicate",0.386
same,fitness,"S. pneumoniae D39V [1]; first compound 0.006 µg/mL, partner 0.031 µg/mL, one replicate",0.421
same,fitness,"S. pneumoniae D39V [1]; first compound 0.006 µg/mL, partner 0.062 µg/mL, one replicate",0.451
same,Bliss interaction score,B. subtilis 168,0.136
same,Bliss interaction score,S. aureus DSM 20231,-0.0671
same,Bliss interaction score,S. aureus Newman,-0.0414
same,Bliss interaction score,S. pneumoniae D39V [2],0.151
CC1(C)S[C@@H]2[C@H](NC(=O)[C@H](N)c3ccc(O)cc3)C(=O)N2[C@H]1C(=O)O [Amoxicillin] + Clc1ccc(COC(Cn2ccnc2)c2ccc(Cl)cc2Cl)c(Cl)c1 [Miconazole],fitness,"S. pneumoniae D39V [1]; first compound 0.0008 µg/mL, partner 1.073 µg/mL",≥ 1
same,fitness,"S. pneumoniae D39V [1]; first compound 0.0008 µg/mL, partner 1.25 µg/mL, one replicate",0.89
same,fitness,"S. pneumoniae D39V [1]; first compound 0.0008 µg/mL, partner 2.145 µg/mL",0.881
same,fitness,"S. pneumoniae D39V [1]; first compound 0.0008 µg/mL, partner 2.5 µg/mL, one replicate",0.799
same,fitness,"S. pneumoniae D39V [1]; first compound 0.0008 µg/mL, partner 4.29 µg/mL",0.882
same,fitness,"S. pneumoniae D39V [1]; first compound 0.0008 µg/mL, partner 5 µg/mL, one replicate",0.987
same,fitness,"S. pneumoniae D39V [1]; first compound 0.0015 µg/mL, partner 1.073 µg/mL",≥ 1
same,fitness,"S. pneumoniae D39V [1]; first compound 0.0015 µg/mL, partner 1.25 µg/mL",0.781
same,fitness,"S. pneumoniae D39V [1]; first compound 0.0015 µg/mL, partner 2.145 µg/mL",0.948
same,fitness,"S. pneumoniae D39V [1]; first compound 0.0015 µg/mL, partner 2.5 µg/mL",0.831
same,fitness,"S. pneumoniae D39V [1]; first compound 0.0015 µg/mL, partner 4.29 µg/mL",0.848
same,fitness,"S. pneumoniae D39V [1]; first compound 0.0015 µg/mL, partner 5 µg/mL",0.906
same,fitness,"S. pneumoniae D39V [1]; first compound 0.003 µg/mL, partner 1.073 µg/mL",0.994
same,fitness,"S. pneumoniae D39V [1]; first compound 0.003 µg/mL, partner 1.25 µg/mL",0.736
same,fitness,"S. pneumoniae D39V [1]; first compound 0.003 µg/mL, partner 2.145 µg/mL",0.778
same,fitness,"S. pneumoniae D39V [1]; first compound 0.003 µg/mL, partner 2.5 µg/mL",0.814
same,fitness,"S. pneumoniae D39V [1]; first compound 0.003 µg/mL, partner 4.29 µg/mL",0.739
same,fitness,"S. pneumoniae D39V [1]; first compound 0.003 µg/mL, partner 5 µg/mL",0.849
same,fitness,"S. pneumoniae D39V [1]; first compound 0.006 µg/mL, partner 1.25 µg/mL, one replicate",0.355
same,fitness,"S. pneumoniae D39V [1]; first compound 0.006 µg/mL, partner 2.5 µg/mL, one replicate",0.264
same,fitness,"S. pneumoniae D39V [1]; first compound 0.006 µg/mL, partner 5 µg/mL, one replicate",0.395
same,Bliss interaction score,B. subtilis 168,0.0957
same,Bliss interaction score,S. aureus DSM 20231,0.0878
same,Bliss interaction score,S. aureus Newman,0.0536
same,Bliss interaction score,S. pneumoniae D39V [2],-0.0912
